Data published in ChEMBL document CHEMBL1671865, “Clostridium difficile infections in a Canadian tertiary care hospital before and during a regional epidemic associated with the BI/NAP1/027 strain” (2008).
In brackets after ≈: the same amount, converted by molar mass.

Key:
Assay type in all cases: functional
Clostridioides difficile [1] = assay: Antimicrobial activity against Clostridium difficile harboring ribotype 001 by CLSI agar dilution method
Clostridioides difficile [2] = assay: Antimicrobial activity against Clostridium difficile harboring ribotype 027 by CLSI agar dilution method
Clostridioides difficile [3] = assay: Antimicrobial activity against Clostridium difficile harboring other ribotypes by CLSI agar dilution method

Compound | MIC50 (Clostridioides difficile [1]) [µg/mL] | MIC90 (Clostridioides difficile [1]) [µg/mL] | MIC50 (Clostridioides difficile [2]) [µg/mL] | MIC90 (Clostridioides difficile [2]) [µg/mL] | MIC50 (Clostridioides difficile [3]) [µg/mL] | MIC90 (Clostridioides difficile [3]) [µg/mL] | MIC (Clostridioides difficile [1]) [µg/mL] | MIC (Clostridioides difficile [2]) [µg/mL]
COc1c(N2CCNC(C)C2)c(F)cc2c(=O)c(C(=O)O)cn(C3CC3)c12 (stereo not drawn) [GATIFLOXACIN] | 32 (≈ 85.2 µM) | 32 (≈ 85.2 µM) | > 32 | > 32 | 2 (≈ 5.33 µM) | > 32 |  | 
Cc1ncc([N+](=O)[O-])n1CCO [METRONIDAZOLE] | 0.5 (≈ 2.92 µM) | 0.5 (≈ 2.92 µM) | 1 (≈ 5.84 µM) | 1 (≈ 5.84 µM) | 0.25 (≈ 1.46 µM) | 0.5 (≈ 2.92 µM) |  | 
CCC[C@@H]1C[C@@H](C(=O)N[C@@H]([C@H]2O[C@H](SC)[C@H](O)[C@@H](O)[C@H]2O)[C@H](C)Cl)N(C)C1 [CLINDAMYCIN] | > 64 | > 64 | 4 (≈ 9.41 µM) | 8 (≈ 18.8 µM) | 4 (≈ 9.41 µM) | 8 (≈ 18.8 µM) | > 64 | 
CCS(=O)(=O)CCn1c([N+](=O)[O-])cnc1C [TINIDAZOLE] | 0.5 (≈ 2.02 µM) | 0.5 (≈ 2.02 µM) | 1 (≈ 4.04 µM) | 1 (≈ 4.04 µM) | 0.25 (≈ 1.01 µM) | 0.5 (≈ 2.02 µM) |  | 
CN[C@H](CC(C)C)C(=O)N[C@H]1C(=O)N[C@@H](CC(N)=O)C(=O)N[C@H]2C(=O)N[C@H]3C(=O)N[C@H](C(=O)N[C@H](C(=O)O)c4cc(O)cc(O)c4-c4cc3ccc4O)[C@H](O)c3ccc(c(Cl)c3)Oc3cc2cc(c3O[C@@H]2O[C@H](CO)[C@@H](O)[C@H](O)[C@H]2O[C@H]2C[C@](C)(N)[C@H](O)[C@H](C)O2)Oc2ccc(cc2Cl)[C@H]1O [VANCOMYCIN] | 1 (≈ 0.69 µM) | 1 (≈ 0.69 µM) | 0.5 (≈ 0.345 µM) | 2 (≈ 1.38 µM) | 1 (≈ 0.69 µM) | 1 (≈ 0.69 µM) |  | 0.5 (≈ 0.345 µM)
RAMOPLANIN | 0.25 | 0.25 | 0.12 | 0.25 | 0.25 | 0.25 |  | 
